Reference: article PMC6028453, “BrlR from Pseudomonas aeruginosa is a receptor for both cyclic di-GMP and pyocyanin” (Nature Communications, 2018)

Assays:
BrlR [1] = biological target: T1, BrlR (Pseudomonas aeruginosa, UniProt Q9HUT5); assay: Surface plasmon resonance (SPR) analysis; format: binding; details: SPR, immobilized BrlR; for Kd: steady state, 25 °C
T1 construct: His6-SUMO (N, cleaved yes); made in house; host or cells: E. coli BL21 DE3
Experimental: The binding affinity of diverse toxic compounds for BrlR were investigated by SPR using a BIAcore-T200 apparatus (GE Healthcare). The ligand, BrlR (20 μM in 10 mM sodium acetate, pH 4.5), was immobilized on an activated CM5 sensor chip by amine coupling (BIAcore) with 4400 response units (RU), and the unreacted sites were blocked with 1.0 M ethanolamine–HCl (pH 8.5). Steady-state binding analysis was performed with injections of different molecules at different concentrations over the immobilized BrlR surface at a flow rate of 20 μL min^−1 at 25 °C. Association was measured for 180 s, followed by 120 s of dissociation in running buffer (20 mM Hepes pH 7.5, 150 mM NaCl). The sensorgrams for specific interactions were obtained by subtracting the reference unimmobilized flow cell response from that of the sample. Since BrlR only has one binding site for pyocyanin or other toxic compounds (Fig. 5a–f), the kinetic analysis of the sensorgrams from analyte interaction with the immobilized BrlR was performed by fitting the binding curves to a 1:1 binding model. To determine the steady state KD values, equilibrium responses were plotted against analyte concentrations, and the resulting curves were fitted to the steady state model in the BIAevaluation software package, version 3.0 (GE Healthcare).

brlR transcription = assay: qRT-PCR of brlR transcript; format: cell-based, P. aeruginosa PAO1; details: ΔphzMSH strain still produces PCA; strain PAO1
Experimental: PAO1 WT strains were grown under different conditions. For c-di-GMP effects, overexpression of PA4843 in PAO1 (PAO1/pHERD20T-PA4843) relative to WT cells (PAO1/ pHERD20T) was determined. When P. aeruginosa strains entered mid-log phase, arabinose was added to induce gene expression. To test pyocyanin’s effect, a P. aeruginosa PAO1 WT strain cells with high pyocyanin production was determined relative to a ΔphzA1-G1/phzA2-G2 strain not producing phenazine and a ΔphzMSH strain not producing pyocyanin.
Total RNA was extracted using a MiniBEST Universal RNA Extraction Kit (TaKaRa) and cDNA synthesis was performed using a PrimeScript RT reagent Kit (TaKaRa). Primers for RT-PCR listed in Supplementary Table 1 were designed using the program PrimerExpress (Applied Biosystems). The RT-PCR reactions were performed on a CFX96 Real-Time PCR Detection System (Bio-Rad) using SYBR Premix Ex Taq™ (TaKaRa). Expression of the target genes was normalized to the expression of 16 S RNA. The relative transcript abundance was calculated according to the 2^−ΔΔCt method. Five biological replicates were performed per sample. The data were analyzed with a one-tailed t-test (***P ≤ 0.001).

BrlR-DNA binding (PbrlR) = biological target: T2, BrlR-DNA binding (PbrlR) (Pseudomonas aeruginosa, UniProt Q9HUT5); assay: EMSA, wild-type BrlR with PbrlR DNA; format: biochemical; details: wild-type BrlR, increasing concentrations of compound
T2 construct: His6-SUMO (N, cleaved yes); made in house; host or cells: E. coli BL21 DE3
Experimental: A 6-carboxy-fluorescein (FAM)-labeled 36-bp brlR promoter DNA (PbrlR) or 80-bp mexA/mexE promoter DNA (PmexA/PmexE) probes (~0.375 pmol), BrlR protein and varying amounts of inducers were incubated in binding buffer (10 mM Tris HCl [pH 7.4], 50 mM KCl, 1 mM DTT, […] and 5 ng/mL poly [dI-dC]) for 60 min at 25 °C. Finally, glycerol was added to a concentration of 6.5%. The samples were subjected to a 5% polyacrylamide gel electrophoresis and run in 0.5 × Tris-borate-EDTA buffer at 80 V for 1 h at room temperature. Imaging and data analyses were performed using a Typhoon Scanner (GE Healthcare) and Imagequant software. The probes used are listed in Supplementary Table 1.

BrlR [2] = biological target: T1, BrlR; assay: Fluorescence polarization (FP) binding assay, wild-type BrlR; details: 1 nM fluorescent ligand, 25 °C
Text: The most striking feature of the BrlR–c-di-GMP complex is the c-di-GMP-binding mode. The DNA-binding domain contains two separate c-di-GMP-binding sites, and shares a mutually intercalated c-di-GMP dimer in a stacking conformation with a crystallographic symmetry related binding site (Fig. 2a–c). […] The interactions stabilizing the c-di-GMPs are different for the two binding sites (Fig. 2d, e, and details are described in Supplementary Note 1). […] This structural feature allows us to perform fluorescence polarization (FP)-based binding assays[19],[23],[24] by using a fluoresceinated c-di-GMP analog, 2′-Fluo-AHC-c-di-GMP (F-c-di-GMP), containing a fluorophore attached to one of the 2′-ribose hydroxyls (Fig. 2f).
F-c-di-GMP and F-c-di-AMP both contain a fluorophore at one of the 2′-ribose hydroxyls of c-di-GMP and c-di-AMP, respectively (Fig. 2f). To measure the binding of c-di-GMP and c-di-AMP to BrlR variants, 1 nM F-c-di-GMP or F-c-di-AMP was incubated with increasing amounts of indicated BrlR WT, BrlR mutation, or BrlR-C in reaction buffer (25 mM HEPES, 100 mM NaCl, pH 7.5) at 25 °C for 20 min. 1 nM fluorescein was incubated with BrlR WT in the same reaction buffer at 25 °C. FP measurements were conducted on a Synergy 4 Microplate Reader (BioTek) at 25 °C. All experiments were performed in triplicate. The curves were fitted to deduce binding affinities by GraphPad Prism 5.

P. aeruginosa PAO1 = assay: Planktonic antibiotic susceptibility testing, PAO1; format: cell-based, Pseudomonas aeruginosa; details: for decrease of CFU number (log reduction): PAO1, 50 μg/ml tobramycin 1 h; for reduction in CFU number: cells harboring pHERD20T-PA2133 (low c-di-GMP), 50 μg/ml tobramycin 1 h
Experimental: To determine the role of pyocyanin in antimicrobial susceptibility, P. aeruginosa strains (Supplementary Table 2) were grown at 37 °C in 20-fold diluted LB medium supplemented with or without 0.2 mM pyocyanin, which was purified from stationary phase cultures of PAO1. Tobramycin was added to the mid-log phase (OD600 = 0.8) cells suspension to a final concentration of 50 μg/ml; after 1 h, the broth was serially diluted and spread-printed onto LB agar (medium containing 300 μg/ml carbenicillin was used for the cells harboring plasmid) to determine the cell viability via CFU counts. The cell suspensions without tobramycin were set as controls. Susceptibility is expressed as a logarithmic reduction in CFU amount. The data were analyzed with a one-tailed t-test (***P ≤ 0.001).

BrlR-C = biological target: T3, BrlR-C (Pseudomonas aeruginosa, UniProt Q9HUT5); assay: FP competition experiment, BrlR-C; format: binding; details: 550 μM BrlR-C, 1 nM F-c-di-GMP
T3 construct: His6 (cleaved yes); made in house; host or cells: E. coli (same protocol as BrlR, induction at 18 °C)
Experimental: Supplementary Figure 11: FP analyses of F-c-di-GMP binding to BrlR-C. (a) Isotherms of BrlR-C binding to F-c-di-GMP. The binding experiment was carried out at 25 °C in a buffer containing 150 mM NaCl, 25 mM Tris·HCl (pH 7.5), and 1 nM F-c-di-GMP. Increasing concentrations of BrlR-C were titrated into the reaction mixture to obtain the binding isotherms. (b) Fluorescence polarization competition experiment of BrlR-C. As a control, 550 μM BrlR-C was added to the reaction tube containing 1 nM F-c-di-GMP, and different competitors were respectively added in the solution and the values of millipolarization were recorded.
(1 picture or pasted object on this page, not shown here)

[3] = biological target: the molecule itself; assay: crystal structure; apo-BrlR, 3.1 Å, space group P65, four BrlR molecules in the asymmetric unit; crystals from 1.8 M sodium acetate pH 7.0, 0.1 M Bis-Tris propane pH 7.0, 20 °C
BrlR [4] = biological target: T4, BrlR (UniProt Q9HUT5 1-270); assay: EMSA; pyocyanin (enhances); details: protein: recombinant; tags: none (His6-SUMO removed); chain copies: 4; label: 5' FAM on strand 1; blunt
T4 sequence: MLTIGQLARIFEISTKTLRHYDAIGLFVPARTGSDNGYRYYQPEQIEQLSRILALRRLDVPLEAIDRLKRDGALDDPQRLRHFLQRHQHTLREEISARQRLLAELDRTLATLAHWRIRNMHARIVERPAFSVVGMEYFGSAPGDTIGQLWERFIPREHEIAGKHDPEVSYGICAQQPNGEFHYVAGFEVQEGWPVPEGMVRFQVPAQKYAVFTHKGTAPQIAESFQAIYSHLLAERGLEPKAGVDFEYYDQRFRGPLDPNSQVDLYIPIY

Molecule: Nc1ncnc2c1ncn2[C@@H]1O[C@H](COP(=O)(O)O)[C@@H](O)[C@H]1O [AMP]
- binding to BrlR in SPR (in words) (BrlR [1]): does not bind

Molecule: CNC(C)C1CCC(N)C(OC2C(N)CC(N)C(OC3OCC(C)(O)C(NC)C3O)C2O)O1 (centres unmarked) [Gentamicin]
- Kd (BrlR [1]): ~470 µM

Molecule: O=C(O)c1cccc2nc3ccccc3nc12 [PCA, phenazine-1-carboxylic acid]
- effect on brlR transcription (brlR transcription): could not up-regulate

Molecule: Nc1ncnc2c1ncn2[C@@H]1O[C@@H]2COP(=O)(O)O[C@H]3[C@@H](O)[C@H](n4cnc5c(N)ncnc54)O[C@@H]3COP(=O)(O)O[C@H]2[C@H]1O [c-di-AMP]
- effect on BrlR-PbrlR DNA binding (in words) (BrlR-DNA binding (PbrlR)): significantly promoted

Molecule: O=C1OC2(c3ccc(O)cc3Oc3cc(O)ccc32)c2ccccc21 [fluorescein]
- Kd (BrlR [2]): 33.6 ± 1.6 µM

Molecule: CCn1cc(C(=O)O)c(=O)c2cc(F)c(N3CCNCC3)cc21 [norfloxacin]
- binding to BrlR in SPR (in words) (BrlR [1]): signals were not sufficiently high

Molecule: CN(C)[C@@H]1C(O)=C(C(N)=O)C(=O)[C@@]2(O)C(O)=C3C(=O)c4c(O)cccc4[C@@](C)(O)[C@H]3C[C@@H]12 [tetracycline]
- binding to BrlR in SPR (in words) (BrlR [1]): signals were not sufficiently high

Molecule: NC[C@H]1O[C@H](O[C@H]2[C@H](O)[C@@H](O[C@H]3O[C@H](CO)[C@@H](O)[C@H](N)[C@H]3O)[C@H](N)C[C@@H]2N)[C@H](N)C[C@@H]1O [tobramycin]
- decrease of CFU number (log reduction) (P. aeruginosa PAO1; absence of pyocyanin): ~ 3.4 order of magnitude
- decrease of CFU number (log reduction) (P. aeruginosa PAO1; presence of 0.2 mM pyocyanin): ~ 1.5 order of magnitude
- reduction in CFU number (P. aeruginosa PAO1; with addition of pyocyanin): 1.7 order of magnitude
- reduction in CFU number (P. aeruginosa PAO1; without pyocyanin): 4.3 order of magnitude
- Kd (BrlR [1]): 640 µM
- effect on BrlR-PbrlR DNA binding (in words) (BrlR-DNA binding (PbrlR)): did not result in an observable difference
- competition with F-c-di-GMP binding to BrlR-C (BrlR-C): outcompeted

B1: BrlR (PA4878) (natural protein)
chain: T4 sequence
notes: also called apo-BrlR; BrlR WT; source: E. coli BL21 DE3, purified (Ni-NTA, tag cleaved by UlpI, Source Q, Superdex 200); not shown: His6-SUMO, N-terminal, cleaved
- stoichiometry N [3]: 4

B2: PmexA (dsDNA)
DNA 1: ACACCTATGAATGTAAGTATTTTGCCTGCCTTCTTCGAGCCGGTGCAGCGCCTTCACGCTGCATCGGCCGCTTTCGCT
DNA 2: AGCGAAAGCGGCCGATGCAGCGTGAAGGCGCTGCACCGGCTCGAAGAAGGCAGGCAAAATACTTACATTCATAGGTGT
- binding result (BrlR [4]): binds

B3: PmexE (dsDNA)
DNA 1: AATCTCGTCGTTCGATTAGTTCCCTGCCGGAGCAGCCCGCAGACTTCGCCAATCCCGAAAAACCGACTGGCGGAGT
DNA 2: ACTCCGCCAGTCGGTTTTTCGGGATTGGCGAAGTCTGCGGGCTGCTCCGGCAGGGAACTAATCGAACGACGAGATT
- binding result (BrlR [4]): binds
